# Experimental data reported in patent US9714244B2, “Substituted pyrido[4,3-d]pyrimidines as Wee-1 inhibitors” (ALMAC DISCOVERY LIMITED, priority 2013, dated 2017).
# Columns and labels:
# Assay type in all cases: biochemical
# Conditions in all cases: 300-350 nM
# MARK2 = MARK2 (Homo sapiens (Human), UniProt Q7KZI7); assay: SelectScreen Kinase Profiling: MARK2
# Description: (§1) Table 2 below highlights the selectivity of a representative compound of the invention against a panel of 50 kinases (assessed using the Invitrogen SelectScreen® Kinase Profiling Service).
# RET = RET (Homo sapiens (Human), UniProt P07949); assay: SelectScreen Kinase Profiling: RET
# RET, sequence (P07949 29-1114): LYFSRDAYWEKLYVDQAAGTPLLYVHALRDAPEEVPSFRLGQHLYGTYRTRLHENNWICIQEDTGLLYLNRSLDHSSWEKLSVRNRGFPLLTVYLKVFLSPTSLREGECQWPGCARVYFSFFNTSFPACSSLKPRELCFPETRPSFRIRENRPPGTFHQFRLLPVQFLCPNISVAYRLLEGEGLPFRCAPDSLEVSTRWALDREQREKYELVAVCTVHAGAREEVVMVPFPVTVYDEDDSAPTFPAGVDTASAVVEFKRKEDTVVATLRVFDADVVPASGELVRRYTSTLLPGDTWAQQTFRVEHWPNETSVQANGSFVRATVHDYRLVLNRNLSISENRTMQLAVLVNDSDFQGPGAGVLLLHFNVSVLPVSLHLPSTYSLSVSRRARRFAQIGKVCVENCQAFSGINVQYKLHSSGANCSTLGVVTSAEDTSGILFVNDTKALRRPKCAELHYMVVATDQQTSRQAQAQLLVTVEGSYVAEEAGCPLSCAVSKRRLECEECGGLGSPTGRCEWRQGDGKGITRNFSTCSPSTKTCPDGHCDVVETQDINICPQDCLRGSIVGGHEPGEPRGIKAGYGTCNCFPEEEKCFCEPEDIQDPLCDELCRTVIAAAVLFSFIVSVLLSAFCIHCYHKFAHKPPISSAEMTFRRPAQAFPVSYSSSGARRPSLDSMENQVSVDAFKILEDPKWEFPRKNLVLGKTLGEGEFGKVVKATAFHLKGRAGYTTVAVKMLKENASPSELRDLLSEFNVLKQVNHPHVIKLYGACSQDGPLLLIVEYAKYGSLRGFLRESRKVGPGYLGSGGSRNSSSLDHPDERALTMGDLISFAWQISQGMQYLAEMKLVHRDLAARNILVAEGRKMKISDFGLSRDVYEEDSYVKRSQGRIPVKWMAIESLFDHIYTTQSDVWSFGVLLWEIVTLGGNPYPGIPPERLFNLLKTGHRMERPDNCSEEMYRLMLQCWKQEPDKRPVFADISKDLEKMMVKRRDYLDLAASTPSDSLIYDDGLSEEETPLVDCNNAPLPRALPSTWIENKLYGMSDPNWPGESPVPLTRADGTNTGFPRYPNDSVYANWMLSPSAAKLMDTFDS
# Description: as §1
# MAPK14 (p38 alpha) = MAPK14 (p38 alpha) (Homo sapiens (Human), UniProt Q16539); assay: SelectScreen Kinase Profiling: MAPK14
# Description: as §1
# DYRK3 = DYRK3 (Homo sapiens (Human), UniProt O43781); assay: SelectScreen Kinase Profiling: DYRK3
# Description: as §1
# MAP2K1 (MEK1) = MAP2K1 (MEK1) (Homo sapiens (Human), UniProt Q02750); assay: SelectScreen Kinase Profiling: MAP2K1
# MAP2K1 (MEK1), sequence (Q02750 whole entry): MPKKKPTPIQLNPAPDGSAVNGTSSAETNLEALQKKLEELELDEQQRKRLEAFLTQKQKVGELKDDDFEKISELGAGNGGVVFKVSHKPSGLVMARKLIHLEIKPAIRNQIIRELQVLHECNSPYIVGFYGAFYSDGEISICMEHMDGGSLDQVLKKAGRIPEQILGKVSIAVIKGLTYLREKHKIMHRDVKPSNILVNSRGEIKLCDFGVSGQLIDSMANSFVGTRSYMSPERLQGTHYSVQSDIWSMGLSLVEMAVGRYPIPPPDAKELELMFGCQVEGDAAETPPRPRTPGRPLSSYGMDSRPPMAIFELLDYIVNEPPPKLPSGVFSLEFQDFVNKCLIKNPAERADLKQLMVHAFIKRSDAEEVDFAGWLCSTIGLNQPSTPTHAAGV
# Description: as §1
# KIT = KIT (Homo sapiens (Human), UniProt P10721); assay: SelectScreen Kinase Profiling: KIT
# Description: as §1
# RPS6KB1 (p70S6K) = RPS6KB1 (p70S6K) (Homo sapiens (Human), UniProt P23443); assay: SelectScreen Kinase Profiling: RPS6KB1
# Description: as §1
# PDGFRB (PDGFR beta) = PDGFRB (PDGFR beta) (Homo sapiens (Human), UniProt P09619); assay: SelectScreen Kinase Profiling: PDGFRB
# IKBKB (IKK beta) = IKBKB (IKK beta) (Homo sapiens (Human), UniProt O14920); assay: SelectScreen Kinase Profiling: IKBKB
# Description: as §1
# CHEK1 (CHK1) = CHEK1 (CHK1) (Homo sapiens (Human), UniProt O14757); assay: SelectScreen Kinase Profiling: CHEK1
# CHEK1 (CHK1), sequence (O14757 whole entry): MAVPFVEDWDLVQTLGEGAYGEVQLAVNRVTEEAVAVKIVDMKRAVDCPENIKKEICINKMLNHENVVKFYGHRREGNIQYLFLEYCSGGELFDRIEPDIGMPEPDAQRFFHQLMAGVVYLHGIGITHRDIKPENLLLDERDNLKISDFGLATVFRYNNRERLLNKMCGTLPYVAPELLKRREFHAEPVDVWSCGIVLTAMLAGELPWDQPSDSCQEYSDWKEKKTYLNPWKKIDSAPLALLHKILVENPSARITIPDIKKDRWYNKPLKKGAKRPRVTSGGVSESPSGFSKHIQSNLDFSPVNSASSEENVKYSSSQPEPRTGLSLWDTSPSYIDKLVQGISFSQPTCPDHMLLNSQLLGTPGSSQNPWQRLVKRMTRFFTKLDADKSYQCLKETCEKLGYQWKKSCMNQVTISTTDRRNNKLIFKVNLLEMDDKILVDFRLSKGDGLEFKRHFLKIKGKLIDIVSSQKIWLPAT
# Description: as §1
# BTK = BTK (Homo sapiens (Human), UniProt Q06187); assay: SelectScreen Kinase Profiling: BTK
# Description: as §1
# NEK1 = NEK1 (Homo sapiens (Human), UniProt Q96PY6); assay: SelectScreen Kinase Profiling: NEK1
# NEK1, sequence (Q96PY6 whole entry): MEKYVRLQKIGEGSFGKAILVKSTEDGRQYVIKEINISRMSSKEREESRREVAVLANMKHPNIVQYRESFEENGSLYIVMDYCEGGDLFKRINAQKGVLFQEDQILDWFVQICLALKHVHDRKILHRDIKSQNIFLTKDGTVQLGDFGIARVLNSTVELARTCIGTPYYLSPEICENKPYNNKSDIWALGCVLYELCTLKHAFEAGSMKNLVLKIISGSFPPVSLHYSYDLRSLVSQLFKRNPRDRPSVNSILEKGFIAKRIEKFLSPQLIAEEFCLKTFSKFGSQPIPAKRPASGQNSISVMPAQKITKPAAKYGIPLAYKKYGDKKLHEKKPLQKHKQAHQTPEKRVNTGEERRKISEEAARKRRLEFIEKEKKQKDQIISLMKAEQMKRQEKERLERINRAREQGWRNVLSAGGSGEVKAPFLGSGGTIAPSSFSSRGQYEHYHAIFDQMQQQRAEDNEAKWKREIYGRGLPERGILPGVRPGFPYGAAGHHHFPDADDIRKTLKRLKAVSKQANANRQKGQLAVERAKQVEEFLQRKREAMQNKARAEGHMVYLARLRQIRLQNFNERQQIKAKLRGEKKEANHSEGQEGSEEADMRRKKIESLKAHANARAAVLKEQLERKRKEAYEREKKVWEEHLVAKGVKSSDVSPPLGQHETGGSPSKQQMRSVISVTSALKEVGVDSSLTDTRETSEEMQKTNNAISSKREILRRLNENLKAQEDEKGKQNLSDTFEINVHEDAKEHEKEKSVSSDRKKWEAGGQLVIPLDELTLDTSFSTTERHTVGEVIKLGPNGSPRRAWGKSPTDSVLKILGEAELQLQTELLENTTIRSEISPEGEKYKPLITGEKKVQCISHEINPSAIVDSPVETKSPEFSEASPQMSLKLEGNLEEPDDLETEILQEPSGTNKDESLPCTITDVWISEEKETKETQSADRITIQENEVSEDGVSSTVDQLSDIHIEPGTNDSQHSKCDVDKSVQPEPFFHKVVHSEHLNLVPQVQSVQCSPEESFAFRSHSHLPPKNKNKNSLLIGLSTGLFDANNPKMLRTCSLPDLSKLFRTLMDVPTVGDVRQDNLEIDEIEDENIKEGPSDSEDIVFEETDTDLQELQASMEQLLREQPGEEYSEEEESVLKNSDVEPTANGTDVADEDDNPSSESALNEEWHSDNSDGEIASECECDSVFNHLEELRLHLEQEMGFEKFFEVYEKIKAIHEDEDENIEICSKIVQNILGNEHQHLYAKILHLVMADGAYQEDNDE
# Description: as §1
# AMPK A1/B1/G1 = AMPK A1/B1/G1 (Homo sapiens (Human), UniProt Q13131); assay: SelectScreen Kinase Profiling: AMPK
# Description: as §1
# PRKACA (PKA) = PRKACA (PKA) (Homo sapiens (Human), UniProt P17612); assay: SelectScreen Kinase Profiling: PRKACA
# Description: as §1
# PHKG2 = PHKG2 (Homo sapiens (Human), UniProt P15735); assay: SelectScreen Kinase Profiling: PHKG2
# Description: as §1
# IRAK4 = IRAK4 (Homo sapiens (Human), UniProt Q9NWZ3); assay: SelectScreen Kinase Profiling: IRAK4
# Description: as §1
# IGF1R = IGF1R (Homo sapiens (Human), UniProt P08069); assay: SelectScreen Kinase Profiling: IGF1R
# Description: as §1
# TEK (Tie2) = TEK (Tie2) (Homo sapiens (Human), UniProt Q02763); assay: SelectScreen Kinase Profiling: TEK
# Description: as §1
# PAK4 = PAK4 (Homo sapiens (Human), UniProt O96013); assay: SelectScreen Kinase Profiling: PAK4
# Description: as §1
# MAP4K4 (HGK) = MAP4K4 (HGK) (Homo sapiens (Human), UniProt O95819); assay: SelectScreen Kinase Profiling: MAP4K4
# Description: as §1
# PLK1 = PLK1 (Homo sapiens (Human), UniProt P53350); assay: SelectScreen Kinase Profiling: PLK1
# Description: as §1
# EPHA2 = EPHA2 (Homo sapiens (Human), UniProt P29317); assay: SelectScreen Kinase Profiling: EPHA2
# Description: as §1
# FRAP1 (mTOR) = FRAP1 (mTOR) (Homo sapiens (Human), UniProt P42345); assay: SelectScreen Kinase Profiling: FRAP1
# Description: as §1
# ACVR1B (ALK4) = ACVR1B (ALK4) (Homo sapiens (Human), UniProt P36896); assay: SelectScreen Kinase Profiling: ACVR1B
# Description: as §1
# CDK1/cyclin B = CDK1/cyclin B (Homo sapiens (Human), UniProt P06493); assay: SelectScreen Kinase Profiling: CDK1/cyclin B
# Description: as §1
# ABL1 = ABL1 (Homo sapiens (Human), UniProt P00519); assay: SelectScreen Kinase Profiling: ABL1
# Description: as §1
# FGFR1 = FGFR1 (Homo sapiens (Human), UniProt P11362); assay: SelectScreen Kinase Profiling: FGFR1
# Description: as §1
# EGFR (ErbB1) = EGFR (ErbB1) (Homo sapiens (Human), UniProt P00533); assay: SelectScreen Kinase Profiling: EGFR
# MAPK8 (JNK1) = MAPK8 (JNK1) (Homo sapiens (Human), UniProt P45983); assay: SelectScreen Kinase Profiling: MAPK8
# Description: as §1
# PIM1 = PIM1 (Homo sapiens (Human), UniProt P11309); assay: SelectScreen Kinase Profiling: PIM1
# Description: as §1
# LCK = LCK (Homo sapiens (Human), UniProt P06239); assay: SelectScreen Kinase Profiling: LCK
# LCK, sequence (P06239 whole entry): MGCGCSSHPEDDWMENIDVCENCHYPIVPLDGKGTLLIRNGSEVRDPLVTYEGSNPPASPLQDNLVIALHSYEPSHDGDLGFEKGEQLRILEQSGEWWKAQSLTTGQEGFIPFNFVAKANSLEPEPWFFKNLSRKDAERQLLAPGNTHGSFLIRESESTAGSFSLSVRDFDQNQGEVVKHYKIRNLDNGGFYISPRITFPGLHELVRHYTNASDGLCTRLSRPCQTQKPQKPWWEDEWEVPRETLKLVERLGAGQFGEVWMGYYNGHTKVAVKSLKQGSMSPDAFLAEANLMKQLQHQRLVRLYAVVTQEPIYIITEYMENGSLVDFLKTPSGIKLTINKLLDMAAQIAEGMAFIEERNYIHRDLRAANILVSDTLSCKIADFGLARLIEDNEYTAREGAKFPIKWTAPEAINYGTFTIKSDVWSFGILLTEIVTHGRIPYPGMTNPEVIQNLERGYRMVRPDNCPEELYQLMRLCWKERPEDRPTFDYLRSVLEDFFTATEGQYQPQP
# Description: as §1
# PRKCB1 (PKC beta I) = PRKCB1 (PKC beta I) (Homo sapiens (Human), UniProt P05771); assay: SelectScreen Kinase Profiling: PRKCB1
# Description: as §1
# AKT1 (PKB alpha) = AKT1 (PKB alpha) (Homo sapiens (Human), UniProt P31749); assay: SelectScreen Kinase Profiling: AKT1
# AKT1 (PKB alpha), sequence (P31749 whole entry): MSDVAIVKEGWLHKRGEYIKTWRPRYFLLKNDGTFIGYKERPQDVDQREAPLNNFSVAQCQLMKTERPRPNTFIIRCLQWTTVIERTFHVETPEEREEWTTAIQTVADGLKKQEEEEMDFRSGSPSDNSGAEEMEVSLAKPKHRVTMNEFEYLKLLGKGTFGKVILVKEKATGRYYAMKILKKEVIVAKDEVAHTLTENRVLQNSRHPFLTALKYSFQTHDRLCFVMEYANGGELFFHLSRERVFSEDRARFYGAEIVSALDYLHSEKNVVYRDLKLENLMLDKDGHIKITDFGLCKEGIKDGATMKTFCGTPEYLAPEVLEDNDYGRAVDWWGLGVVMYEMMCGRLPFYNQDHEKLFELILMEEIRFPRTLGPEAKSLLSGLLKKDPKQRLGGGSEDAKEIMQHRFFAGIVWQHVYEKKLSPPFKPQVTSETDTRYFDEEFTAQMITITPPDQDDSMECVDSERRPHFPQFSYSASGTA
# Description: as §1
# SYK = SYK (Homo sapiens (Human), UniProt P43405); assay: SelectScreen Kinase Profiling: SYK
# Description: as §1
# ERBB2 (HER2) = ERBB2 (HER2) (Homo sapiens (Human), UniProt P04626); assay: SelectScreen Kinase Profiling: ERBB2
# Description: as §1
# INSR = INSR (Homo sapiens (Human), UniProt P06213); assay: SelectScreen Kinase Profiling: INSR
# Description: as §1
# JAK3 = JAK3 (Homo sapiens (Human), UniProt P52333); assay: SelectScreen Kinase Profiling: JAK3
# Description: as §1
# MARK2, sequence (Q7KZI7 whole entry): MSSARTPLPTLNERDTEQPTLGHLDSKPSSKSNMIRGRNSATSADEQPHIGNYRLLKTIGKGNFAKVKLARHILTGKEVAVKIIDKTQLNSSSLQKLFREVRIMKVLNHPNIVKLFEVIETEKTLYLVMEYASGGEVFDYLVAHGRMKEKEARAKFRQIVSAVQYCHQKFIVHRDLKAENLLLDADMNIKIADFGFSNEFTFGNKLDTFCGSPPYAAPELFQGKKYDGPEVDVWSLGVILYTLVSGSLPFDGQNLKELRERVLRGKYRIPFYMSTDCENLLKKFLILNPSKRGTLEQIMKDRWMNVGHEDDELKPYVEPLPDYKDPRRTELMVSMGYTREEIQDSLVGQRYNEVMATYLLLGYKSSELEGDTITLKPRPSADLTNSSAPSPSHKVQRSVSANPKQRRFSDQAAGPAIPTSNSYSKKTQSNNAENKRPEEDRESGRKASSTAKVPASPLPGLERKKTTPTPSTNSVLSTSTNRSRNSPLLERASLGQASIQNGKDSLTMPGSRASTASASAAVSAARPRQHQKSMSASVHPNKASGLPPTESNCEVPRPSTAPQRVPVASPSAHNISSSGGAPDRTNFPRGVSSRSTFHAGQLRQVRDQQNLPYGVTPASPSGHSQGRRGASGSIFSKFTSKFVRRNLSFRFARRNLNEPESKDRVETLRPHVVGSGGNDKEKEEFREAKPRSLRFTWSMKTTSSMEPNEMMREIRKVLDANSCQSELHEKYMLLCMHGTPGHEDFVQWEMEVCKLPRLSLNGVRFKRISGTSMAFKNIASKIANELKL
structure (smiles),measurement,setting,value
"O=c1c2cnc(Nc3ccc(N4CCNCC4)cc3)nc2ccn1-c1c(Cl)cccc1Cl [Example 1, 6-(2,6-Dichlorophenyl)-2-((4-(piperazin-1-yl)phenyl)amino)pyrido[4,3-d]pyrimidin-5(6H)-one]",Inhibition MARK2,MARK2,− (Inhibition <75% @ 300-350 nM)
same,Inhibition RET,RET,− (Inhibition <75% @ 300-350 nM)
same,Inhibition MAPK14 (p38 alpha),MAPK14 (p38 alpha),− (Inhibition <75% @ 300-350 nM)
same,Inhibition DYRK3,DYRK3,− (Inhibition <75% @ 300-350 nM)
same,Inhibition MAP2K1 (MEK1),MAP2K1 (MEK1),− (Inhibition <75% @ 300-350 nM)
same,Inhibition KIT,KIT,− (Inhibition <75% @ 300-350 nM)
same,Inhibition RPS6KB1 (p70S6K),RPS6KB1 (p70S6K),− (Inhibition <75% @ 300-350 nM)
same,Inhibition PDGFRB (PDGFR beta),PDGFRB (PDGFR beta),− (Inhibition <75% @ 300-350 nM)
same,Inhibition IKBKB (IKK beta),IKBKB (IKK beta),− (Inhibition <75% @ 300-350 nM)
same,Inhibition CHEK1 (CHK1),CHEK1 (CHK1),− (Inhibition <75% @ 300-350 nM)
same,Inhibition BTK,BTK,− (Inhibition <75% @ 300-350 nM)
same,Inhibition NEK1,NEK1,− (Inhibition <75% @ 300-350 nM)
same,Inhibition AMPK A1/B1/G1,AMPK A1/B1/G1,− (Inhibition <75% @ 300-350 nM)
same,Inhibition PRKACA (PKA),PRKACA (PKA),− (Inhibition <75% @ 300-350 nM)
same,Inhibition PHKG2,PHKG2,− (Inhibition <75% @ 300-350 nM)
same,Inhibition IRAK4,IRAK4,− (Inhibition <75% @ 300-350 nM)
same,Inhibition IGF1R,IGF1R,− (Inhibition <75% @ 300-350 nM)
same,Inhibition TEK (Tie2),TEK (Tie2),− (Inhibition <75% @ 300-350 nM)
same,Inhibition PAK4,PAK4,− (Inhibition <75% @ 300-350 nM)
same,Inhibition MAP4K4 (HGK),MAP4K4 (HGK),− (Inhibition <75% @ 300-350 nM)
same,Inhibition PLK1,PLK1,− (Inhibition <75% @ 300-350 nM)
same,Inhibition EPHA2,EPHA2,− (Inhibition <75% @ 300-350 nM)
same,Inhibition FRAP1 (mTOR),FRAP1 (mTOR),− (Inhibition <75% @ 300-350 nM)
same,Inhibition ACVR1B (ALK4),ACVR1B (ALK4),− (Inhibition <75% @ 300-350 nM)
same,Inhibition CDK1/cyclin B,CDK1/cyclin B,− (Inhibition <75% @ 300-350 nM)
same,Inhibition ABL1,ABL1,+ (Inhibition >75% at 300-350 nM)
same,Inhibition FGFR1,FGFR1,− (Inhibition <75% @ 300-350 nM)
same,Inhibition EGFR (ErbB1),EGFR (ErbB1),− (Inhibition <75% @ 300-350 nM)
same,Inhibition MAPK8 (JNK1),MAPK8 (JNK1),− (Inhibition <75% @ 300-350 nM)
same,Inhibition PIM1,PIM1,− (Inhibition <75% @ 300-350 nM)
same,Inhibition LCK,LCK,− (Inhibition <75% @ 300-350 nM)
same,Inhibition PRKCB1 (PKC beta I),PRKCB1 (PKC beta I),− (Inhibition <75% @ 300-350 nM)
same,Inhibition AKT1 (PKB alpha),AKT1 (PKB alpha),− (Inhibition <75% @ 300-350 nM)
same,Inhibition SYK,SYK,− (Inhibition <75% @ 300-350 nM)
same,Inhibition ERBB2 (HER2),ERBB2 (HER2),− (Inhibition <75% @ 300-350 nM)
same,Inhibition INSR,INSR,− (Inhibition <75% @ 300-350 nM)
same,Inhibition JAK3,JAK3,− (Inhibition <75% @ 300-350 nM)
